Assay results from patent US10716769B2 (GUANGZHOU JTREAT BIOSCI. LTD., priority 2015, dated 2020).
Converted amounts (≈) assume the structure as drawn.

Experiments:
Type in all cases: cell-based
[1] = system: human endometrial carcinoma cell line (JEC); assay: MTT in vitro tumor cell inhibition; settings: 3 days
Description: (§1) An effective amount of the above compounds and/or the compositions containing the same used as an active ingredient have an effect on inhibiting the tumor cells. The present invention detects the inhibitory effect of the hydroxy-substituted benzophenone compounds on the proliferation of the in vitro cultured human tumor cells by the methylthiazolyl tetrazolium method.
(§2) The method is used to detect cell viability. […] Particles can be dissolved by dimethyl sulfoxide (DMSO) isopropyl alcohol or 10% acidified SDS (sodium dodecyl sulfate), and a microplate reader is used to measure the OD value at A570 wavelength, which indirectly reflects the number of live cells. The method is used for detection of the cytokines bioactivity, as well as anti-tumor drugs and tumor radiosensitivity and cytotoxicity test, and has the characteristics of being simple, fast, economical, sensitive and accurate and having good reproducibility and no need to use radionuclides. This method has been widely used in screening preclinical anticancer drugs and detecting the drug sensitivity of fresh tumor cells. The method is as below:
(§3) (1) The tumor cell suspension prepared by 0.25% of trypsin digestion and adjusted to a cell concentration of 10^5/ml with RPMI1640 containing 10% fetal calf serum is added to a 96-well plate with 100 μl for each well, cultured 24 hours, and then different dosages of drugs are added with 100 μl/well, for which, the negative control groups, positive control groups and withering wells are set, and 4 parallel wells are set for each group.
(§4) (2) They are continually cultured in incubator containing 5% of CO2 at 37° C. for 24 to 48 hours. MTT solution (5 g/L) is added to each well before the termination of the experiment. The OD value at A570 nm is detected by microplate reader. The OD value at A570 of the negative group without the addition of drugs is taken as a control. The cell survival rate and cell inhibition rate of drugs are calculated according to the following formula: Cell survival rate=(OD value of test group/OD value of control group)×100% Cell inhibition rate (%)=(OD value of the control group−OD value of the test group/(OD value of the control group−OD value of the blank group)
(§5) 1. Tumor cell lines: human glioma cell line (U251), human colon cancer cell line (LOVO), human hepatoma cell line (HepG2), human lung cancer cell line (PC84045), human endometrial carcinoma cell line (JEC), human renal carcinoma (GRC), human gastric cancer cell line (MCG804), human cervical cancer cell line (HeLa), human hepatocellular carcinoma cell line (BEL-7402) and human umbilical vein endothelial cell line (ECV304) purchased from Animal Experimental Center of Zhongshan Medical College, and preserved by the present laboratory.
(§6) The tumor cell lines are cultured in RPMI-1640 medium containing 15% of the newborn bovine serum in a conventional manner, placed in the humidification incubator containing 5% of CO2 for being cultured at 37° C., and are observed for growth by an inverted microscope. A subculture is conducted every about 3-5 days, the cells in logarithmic growth phase are adopted to be digested with 0.25% of trypsin, and the serum-free RPMI-1640 medium is used for culturing the cell suspension; the blood counting plate makes counting, the trypan blue exclusion tests the cell activity, and the cell viability>95% is used for formal tests.
(§7) Liquid preparation: the compounds are labeled with the codes respectively, DMSO is used to dissolve each compound, the bacterial filter is used to remove bacteria, and each compound is prepared into 10^−4 g/ml, 10^−5 g/ml, 10^−6 g/ml and preserved at 4° C. for use. […]

[2] = system: human gastric cancer cell line (MCG804); assay: MTT in vitro tumor cell inhibition; settings: 3 days
Description: as §1, §2, §3, §4, §5, §6, §7

[3] = system: human cervical cancer cell line (HeLa); assay: MTT in vitro tumor cell inhibition; settings: 3 days
Description: as §1, §2, §3, §4, §5, §6, §7

[4] = system: human glioma cell line (U251); assay: MTT in vitro tumor cell inhibition; settings: 3 days; for Inhibitory rate, sensitivity class: U251, 10^−6 g/ml
Description: as §1, §2, §3, §4, §5, §6, §7

[5] = system: human lung cancer cell line (PC84045); assay: MTT in vitro tumor cell inhibition; settings: 3 days
Description: as §1, §2, §3, §4, §5, §6, §7

[6] = system: human hepatoma cell line (HepG2); assay: MTT in vitro tumor cell inhibition; settings: 3 days
Description: as §1, §2, §3, §4, §5, §6, §7

HSV-I, VR733 strain = assay: Inhibition of cytopathic effects of Vero cells caused by herpes virus type I; settings: Human alphaherpesvirus 1; Vero cells, CPE 48 hours, Reed-Muench; read-out: IC50 Against HSV-1
Description: Vero cells (kidney cells of African green monkey) are used as viral hosts to test the inhibition degree of the samples to the cytopathic effects of Vero cells caused by herpes virus type I and type II.
Vero cells (kidney cells of African green monkey) are used as viral hosts to test the inhibition degree of the samples to cytopathic effects of the Vero cell caused by herpes virus type I and type II.
1. Virus strains: HSV-I, VR733 strain, and HSV-II, SAV strain, which both are provided by ATCC.
2. Sample treatment: the sample is dissolved in DMSO at an appropriate concentration before use, and diluted with the culture medium 3 times at a total of 8 dilutions for test.
3. Positive control drug: acyclovir (ACV) produced by the Hubei Ke Yi pharmaceutical factory.

Row | Structure (SMILES) | Inhibitory rate % ([1]; 10^−4 g/ml) [%] | Inhibitory rate % ([1]; 10^−5 g/ml) [%] | Inhibitory rate, sensitivity class ([1]; 10^−6 g/ml) | Inhibitory rate % ([2]; MCG804, 10^−4 g/ml) [%] | Inhibitory rate % ([2]; MCG804, 10^−5 g/ml) [%] | Inhibitory rate, sensitivity class ([2]; MCG804, 10^−6 g/ml) | Inhibitory rate % ([3]; 10^−4 g/ml) [%] | Inhibitory rate, sensitivity class ([3]; 10^−5 g/ml) | Inhibitory rate, sensitivity class ([3]; 10^−6 g/ml) | Inhibitory rate % ([4]; U251, 10^−4 g/ml) [%] | Inhibitory rate % ([4]; U251, 10^−5 g/ml) [%] | Inhibitory rate, sensitivity class [4] | Inhibitory rate % ([5]; PC84045, 10^−4 g/ml) [%] | Inhibitory rate % ([5]; PC84045, 10^−5 g/ml) [%] | Inhibitory rate % ([6]; HepG2, 10^−4 g/ml) [%] | Inhibitory rate % ([6]; HepG2, 10^−5 g/ml) [%] | Inhibitory rate, sensitivity class ([6]; HepG2, 10^−6 g/ml) | IC50 (HSV-I, VR733 strain) [µg/mL] | Inhibitory rate, sensitivity class ([5]; PC84045, 10^−6 g/ml) | further results
1 | O=C(c1cc(O)c(O)cc1O)c1ccc(O)c(O)c1O | 83.16 | 42.57 | insensitive (<30% means insensitive) | 83.48 | 72.89 | insensitive (<30% means insensitive) | 60.92 | insensitive (<30% means insensitive) | insensitive (<30% means insensitive) | 68.82 | 31.35 | insensitive (<30% means insensitive) | 82.49 | 70.97 | 85.12 | 51.57 | insensitive (<30% means insensitive) | – | – | Inhibitory rate % ([5]; PC84045, 10^−6 g/ml): 49.70%
2 | O=C(c1ccc(O)c(O)c1O)c1ccc(O)c(O)c1O [2,3,4,2′,3′,4′-hexahydroxybenzophenone] | 85.63 | 42.79 | insensitive (<30% means insensitive) | 80.93 | 30.12 | insensitive (<30% means insensitive) | 61.12 | insensitive (<30% means insensitive) | insensitive (<30% means insensitive) | 83.26 | 30.87 | insensitive (<30% means insensitive) | 84.60 | 72.34 | 86.15 | 75.54 | insensitive (<30% means insensitive) | 28.7 (≈ 103 µM) | insensitive (<30% means insensitive) | –
3 | O=C(c1ccccc1)c1ccc(O)c(O)c1O [2,3,4-trihydroxybenzophenone] | 86.79 | 40.97 | insensitive (<30% means insensitive) | 87.14 | 62.75 | insensitive (<30% means insensitive) | 89.81 | – | insensitive (<30% means insensitive) | 85.42 | 43.57 | insensitive (<30% means insensitive) | 85.75 | 32.79 | 93.40 | 58.05 | insensitive (<30% means insensitive) | 28.7 (≈ 125 µM) | insensitive (<30% means insensitive) | Inhibitory rate % ([3]; 10^−5 g/ml): 34.53%
4 | O=C(c1ccc(O)cc1O)c1ccc(O)cc1O [2,4,2′,4′-tetrahydroxybenzophenone] | 46.70 | – | insensitive (<30% means insensitive) | 38.95 | – | insensitive (<30% means insensitive) | 31.05 | insensitive (<30% means insensitive) | insensitive (<30% means insensitive) | – | – | – | 53.40 | – | 74.85 | – | insensitive (<30% means insensitive) | 28.7 (≈ 117 µM) | insensitive (<30% means insensitive) | Inhibitory rate, sensitivity class ([1]; 10^−5 g/ml): insensitive (<30% means insensitive); Inhibitory rate, sensitivity class ([2]; MCG804, 10^−5 g/ml): insensitive (<30% means insensitive); Inhibitory rate, sensitivity class ([5]; PC84045, 10^−5 g/ml): insensitive (<30% means insensitive); Inhibitory rate, sensitivity class ([6]; HepG2, 10^−5 g/ml): insensitive (<30% means insensitive)
